Like-named read-outs stand apart in the source and are kept apart here.
Key:
TNF-α = settings: macrophages and other cells; Cain et al. 1998; cited from earlier work
[1] = Multiple-dose escalating-dose study of adverse events, doses taken with food; assay type: in vivo, human; settings: 801 to 4005 mg/day escalating
Protocol: A second study was designed to examine incidences of adverse events on multiple ascending daily doses of pirfenidone. The trial was conducted as an open-label, escalating-dose study with no washout period between dose escalations. 25 healthy adults between the ages of 45 and 79 (inclusive) having body mass indices between 18 and 30 (inclusive) were enrolled. 22 adults completed the treatment. Each volunteer received from 801 mg/day to 4005 mg/day of pirfenidone divided into three equal doses as follows:
All subjects were admitted to the clinic for clinical evaluation the day before the first dose of study medication and remained confined for 17 days. Each subject received all dose levels of the study drug unless adverse events or the clinical judgment of the trial physician precluded the continuation of treatment. All doses were taken with 240 mL room temperature water and with food (excluding grapefruit juice). TID doses times were ˜0800, ˜1200, and ˜1800.

[2] = system: fibrogenic cytokines such as TGF-β1, bFGF, PDGF, and EGF; settings: Zhang S et al. 1998; cited from earlier work
[3] = Single-dose four-treatment crossover study of the effect of food and antacid on adverse events; assay type: in vivo, human; settings: for subjects who experienced an adverse event: single oral dose 3×267 mg, 16 healthy adults
Protocol: (§1) A study was designed to evaluate the effect of food, antacids, and food taken with antacids on adverse events associated with pirfenidone use. The trial was conducted as a randomized, open-label, four-treatment crossover, with a single dose for each treatment period and a 2-day washout period between study treatments. 16 healthy adults between the ages of 50 and 79 years having body mass indices between 18 and 30 (inclusive) were enrolled and completed all 4 treatment arms. The treatment arms were as follows:
A) pirfenidone alone (Fasted);
B) pirfenidone within 1 minute following a dose of antacid (20 mL Mylanta® Maximum Strength Liquid) (Fasted+Antacid);
C) pirfenidone 5 minutes after completing a standard meal (Fed); and
D) pirfenidone 5 minutes after completing a standard meal, then within 1 minute, followed by a dose of antacid (Fed+Antacid).
(§2) All subjects were admitted to the clinic for clinical evaluation the day prior to receiving the first dose of the study medication and remained confined for 13 days. Following an overnight fast of at least 10 hours (h), subjects were randomized to one of the above-described 4 treatment sequences. Each dose of pirfenidone (3×267 mg capsules) was administered orally with 240 mL room temperature water on days 1, 4, 7, and 10 in the morning, following an overnight fast of at least 10 hours. The washout period between treatments was 2 days. A standard meal consisted of 2 fried eggs, 2 strips of bacon, 2 slices of toast, 2 pats of butter, hash brown potatoes (4 oz), and whole milk (8 oz).
On each study day, adverse events were reviewed with the patients as follows. Before administration of the first dose of the study drug, study site personnel noted the occurrence and nature of each subject's medical condition(s). During the trial, site personnel again noted any change in the condition(s) or occurrence and nature of any adverse events. The severity of adverse events were graded based on the Modified Common Toxicity Criteria and the relationship of the study drug to the adverse event determined.

[4] = Pharmacokinetics of an 801 mg pirfenidone dose taken with or without food; assay type: in vivo, human; settings: for half-life: human, plasma, oral, 801 mg, read-out: mean absorption half life (converted)
Protocol: as §1, §2
Of 7 subjects who reported nausea, 5 of 16 (31%) were fasted compared to only 2 of 16 (13%) fed subjects. Of 5 subjects reporting dizziness, 4 of 16 (25%) were fasted, while only 1 of 16 (6%) was fed. Of 3 subjects reporting somnolence, 2 of 16 (13%) were fasted and 1 of 16 (6%) were fed. Of 3 subjects reporting headaches, 2 of 16 (13%) were fasted and 1 of 16 (6%) were fed.

[5] = 801 mg pirfenidone without food

Cc1ccc(=O)n(-c2ccccc2)c1 [pirfenidone, 5-methyl-1-phenyl-2-(1H)-pyridone]
effect on synthesis and release of TNF-α (TNF-α): blocks the synthesis and release of excessive amounts of TNF-α | subjects with at least one adverse event ([1]; TID with food, 23 of 25 healthy adults): 92% | incidence of headache ([1]; with food, 7 of 25): 28% | incidence of somnolence ([1]; with food, 8 of 25): 32% | incidence of nausea ([1]; with food, 9 of 25): 36% | subjects with adverse events in whom the adverse events were mild ([1]; with food, 22 of the 23 subjects): 95% | effect on biosynthesis or release of fibrogenic cytokines [2]: inhibits excessive biosynthesis or release | incidence of somnolence ([3]; all arms, 4 of 16): 25% | incidence of dizziness ([3]; all arms, 6 of 16): 38% | incidence of nausea ([3]; all arms, 7 of 16): 44% | subjects with adverse events in whom the adverse events were mild ([3]; all arms, 8 of the 12 subjects with an adverse event): 66.7% | subjects with at least 1 adverse event in total ([3]; all four treatment arms, 12 of 16 subjects): 75% | incidence of headaches ([3]; fasted, 2 of 16): 13% | incidence of somnolence ([3]; fasted, 2 of 16): 13% | incidence of dizziness ([3]; fasted, 4 of 16): 25% | incidence of nausea ([3]; fasted, 5 of 16): 31% | incidence of dizziness ([3]; fed, 1 of 16): 6% | incidence of headaches ([3]; fed, 1 of 16): 6% | incidence of somnolence ([3]; fed, 1 of 16): 6% | incidence of nausea ([3]; fed, 2 of 16): 13% | subjects who experienced an adverse event ([3]; pirfenidone alone without food (Fasted)): 56.3% | subjects who experienced an adverse event ([3]; with food (Fed)): 31.3% | subjects who experienced an adverse event ([3]; with food and antacid (Fed+Antacid)): 25% | subjects who experienced an adverse event ([3]; within 1 minute following a dose of antacid (Fasted+Antacid)): 56.3% | mean maximum plasma concentration ([4]; 801 mg pirfenidone with food): 7874 ng/mL | mean maximum plasma concentration [4, 5]: 15724 ng/mL | half-life ([4]; 801 mg pirfenidone with food): 1.78 h | half-life [4, 5]: 0.572 h

Source: patent publication US20070203202A1, “Methods of reducing adverse events associated with pirfenidone therapy” (priority 2005, published 2007)
